Laboratory results as given in ChEMBL document CHEMBL4020729, “Synthesis and evaluation of anti-plasmodial and cytotoxic activities of epoxyazadiradione derivatives” (Eur J Med Chem, 2017).

Experiments:
Format in all cases: functional, cell-based
Plasmodium falciparum [1] = assay: Anti-plasmodial activity against chloroquine-resistant Plasmodium falciparum Dd2 infected in human erythrocytes after 50 hrs by SYBR green dye based fluorescence assay; details: Dd2, 50 h
MDA-MB-231 = assay: Antiproliferative activity against human MDA-MB-231 cells after 48 hrs by SRB assay; details: MDA-MB-231, 48 h
Plasmodium falciparum [2] = assay: Anti-plasmodial activity against chloroquine-sensitive Plasmodium falciparum 3D7 infected in human erythrocytes after 50 hrs by SYBR green dye based fluorescence assay; details: 3D7, 50 h
IMR-32 = assay: Antiproliferative activity against human IMR32 cells after 48 hrs by SRB assay; details: IMR-32, 48 h
SiHa = assay: Antiproliferative activity against human SiHa cells after 48 hrs by SRB assay
PANC-1 = assay: Antiproliferative activity against human PANC1 cells after 48 hrs by SRB assay; details: PANC-1, 48 h

| SMILES | IC50 (Plasmodium falciparum [1]) [µM] | IC50 (MDA-MB-231) [µM] | IC50 (Plasmodium falciparum [2]) [µM] | IC50 (IMR-32) [µM] | IC50 (SiHa) [µM] | IC50 (PANC-1) [µM] |
| --- | --- | --- | --- | --- | --- | --- |
| CC(=O)O[C@@H]1C[C@H]2C(C)(C)C(=O)C=C[C@]2(C)[C@H]2CC[C@@]3(C)[C@H](c4ccoc4)/C(=N\OCc4cn(-c5ccc(C(C)=O)cc5)nn4)[C@H]4O[C@]43[C@@]21C | 2.3 | > 100 | 3.1 | > 100 | > 100 | > 100 |
| CC(=O)O[C@@H]1C[C@H]2C(C)(C)C(=O)C=C[C@]2(C)[C@H]2CC[C@@]3(C)[C@H](c4ccoc4)/C(=N\OCc4cn(-c5ccccc5C#N)nn4)[C@H]4O[C@]43[C@@]21C |  | > 100 | 1.7 | > 100 | > 100 | > 100 |
| CC(=O)O[C@@H]1C[C@H]2C(C)(C)C(=O)C=C[C@]2(C)[C@H]2CC[C@@]3(C)[C@H](c4ccoc4)/C(=N\OC(=O)c4cc(Br)ccc4[N+](=O)[O-])[C@H]4O[C@]43[C@@]21C |  | > 100 | 4.1 | > 100 | > 100 | > 100 |
| COc1ccc(OC)c(/C=C/C(=O)O[C@@H]2C[C@H]3C(C)(C)C(=O)C=C[C@]3(C)[C@H]3CC[C@@]4(C)[C@H](c5ccoc5)C(=O)[C@H]5O[C@]54[C@@]32C)c1 |  | > 100 | 8.8 | > 100 | > 100 | > 100 |
| CC1(C)C(=O)C=C[C@]2(C)[C@H]3CC[C@@]4(C)[C@H](c5ccoc5)C(=O)[C@H]5O[C@]54[C@]3(C)[C@H](O)C[C@@H]12 | 9.4 |  | 11.4 |  |  |  |
| CC(=O)O[C@@H]1C[C@H]2C(C)(C)C(O)CC[C@]2(C)[C@H]2CC[C@@]3(C)[C@H](c4ccoc4)C(O)[C@H]4O[C@]43[C@@]21C (some centres undefined) |  | 15.9 | 21.4 | > 100 | > 100 | > 100 |
| CC(=O)O/N=C1/[C@H]2O[C@]23[C@@]2(C)[C@H](CC[C@@]3(C)[C@@H]1c1ccoc1)[C@@]1(C)C=CC(=O)C(C)(C)[C@@H]1C[C@H]2OC(C)=O |  | > 100 | 9.3 | > 100 | > 100 | > 100 |
| CC(=O)O[C@@H]1C[C@H]2C(C)(C)C(=O)C=C[C@]2(C)[C@H]2CC[C@@]3(C)[C@H](c4ccoc4)/C(=N\OCc4cn(CC(=O)Nc5ccc(I)c(Cl)c5)nn4)[C@H]4O[C@]43[C@@]21C | 87 | > 100 | 53.2 | > 100 | > 100 | > 100 |
| CC(=O)O[C@@H]1C[C@H]2C(C)(C)C(=O)C=C[C@]2(C)[C@H]2CC[C@@]3(C)[C@H](c4ccoc4)/C(=N\OCc4cn(-c5ccc(Cl)cc5)nn4)[C@H]4O[C@]43[C@@]21C |  | 21.3 | 2.9 | > 100 | > 100 | > 100 |
| CC(=O)O[C@@H]1C[C@H]2C(C)(C)C(=O)C=C[C@]2(C)[C@H]2CC[C@@]3(C)[C@H](c4ccoc4)C(=O)[C@H]4O[C@]43[C@@]21C [EPOXYAZADIRADIONE] | 2.9 | > 100 | 2.9 | > 100 | > 100 | > 100 |
| CC(=O)O[C@@H]1C[C@H]2C(C)(C)C(=O)C3OC3[C@]2(C)[C@H]2CC[C@@]3(C)[C@H](c4ccoc4)C(=O)[C@H]4O[C@]43[C@@]21C (some centres undefined) |  | 23.2 | 15.5 | > 100 | > 100 | > 100 |
| CC(=O)O[C@@H]1C[C@H]2C(C)(C)C(=O)C=C[C@]2(C)[C@H]2CC[C@@]3(C)[C@H](c4ccoc4)/C(=N\OC(=O)c4ccccc4Br)[C@H]4O[C@]43[C@@]21C |  | > 100 | 12.2 | > 100 | > 100 | > 100 |
| COc1cccc2c1C(=O)c1c(O)c3c(c(O)c1C2=O)C[C@@](O)(C(=O)CO)C[C@@H]3O[C@H]1C[C@H](N)[C@H](O)[C@H](C)O1 [DOXORUBICIN] |  | 1.8 |  | 3.2 | 1.9 | 3.2 |
| CCC(=O)O[C@@H]1C[C@H]2C(C)(C)C(=O)C=C[C@]2(C)[C@H]2CC[C@@]3(C)[C@H](c4ccoc4)C(=O)[C@H]4O[C@]43[C@@]21C |  |  | 7.1 |  |  |  |
| C=CCCC(=O)O/N=C1/[C@H]2O[C@]23[C@@]2(C)[C@H](CC[C@@]3(C)[C@@H]1c1ccoc1)[C@@]1(C)C=CC(=O)C(C)(C)[C@@H]1C[C@H]2OC(C)=O |  | 55.8 | 5.8 | > 100 | > 100 | > 100 |
| CC(=O)O[C@@H]1C[C@H]2C(C)(C)C(=O)CC[C@]2(C)[C@H]2CC[C@@]3(C)[C@H](C4CCOC4)C(=O)[C@H]4O[C@]43[C@@]21C (some centres undefined) |  | > 100 | 78.7 | > 100 | > 100 | > 100 |

| SMILES | IC50 (Plasmodium falciparum [1]) [µM] | IC50 (MDA-MB-231) [µM] | IC50 (Plasmodium falciparum [2]) [µM] | IC50 (IMR-32) [µM] | IC50 (SiHa) [µM] | IC50 (PANC-1) [µM] |
| --- | --- | --- | --- | --- | --- | --- |
| CC(=O)O[C@@H]1C[C@H]2C(C)(C)C(=O)C=C[C@]2(C)[C@H]2CC[C@@]3(C)[C@H](c4ccoc4)/C(=N\OC(=O)c4ccc(Br)cc4)[C@H]4O[C@]43[C@@]21C |  | > 100 | 9.4 | > 100 | > 100 | > 100 |
| CCCC(=O)O/N=C1/[C@H]2O[C@]23[C@@]2(C)[C@H](CC[C@@]3(C)[C@@H]1c1ccoc1)[C@@]1(C)C=CC(=O)C(C)(C)[C@@H]1C[C@H]2OC(C)=O |  | > 100 | 9.3 | > 100 | > 100 | > 100 |
| COc1ccc(C[C@@H](O)c2cc(OC)c(OC)c(OC)c2)cc1O [COMBRETASTATIN] |  | 2.3 |  | 2.4 | 2 | 3.5 |
| CC1(C)C(=O)C=C[C@]2(C)[C@H]3CC[C@@]4(C)[C@H](c5ccoc5)/C(=N\O)[C@H]5O[C@]54[C@]3(C)[C@H](O)C[C@@H]12 |  | > 100 | 20 | > 100 | > 100 | > 100 |
| CC(=O)O[C@@H]1C[C@H]2C(C)(C)C(=O)C=C[C@]2(C)[C@H]2CC[C@@]3(C)[C@H](c4ccoc4)/C(=N\OCc4cn(-c5cc(Cl)c(Cl)cc5Cl)nn4)[C@H]4O[C@]43[C@@]21C |  | > 100 | 2.3 | > 100 | > 100 | > 100 |
| CC(=O)O[C@@H]1C[C@H]2C(C)(C)C(=O)C(O)C(O)[C@]2(C)[C@H]2CC[C@@]3(C)[C@H](c4ccoc4)C(=O)[C@H]4O[C@]43[C@@]21C (some centres undefined) |  | 29.9 | 52.5 | > 100 | > 100 | > 100 |
| CC(=O)O[C@@H]1C[C@H]2C(C)(C)C(O)C=C[C@]2(C)[C@H]2CC[C@@]3(C)[C@H](c4ccoc4)C(O)[C@H]4O[C@]43[C@@]21C (some centres undefined) |  | > 100 | 35.5 | > 100 | > 100 | > 100 |
| CCC(=O)O/N=C1/[C@H]2O[C@]23[C@@]2(C)[C@H](CC[C@@]3(C)[C@@H]1c1ccoc1)[C@@]1(C)C=CC(=O)C(C)(C)[C@@H]1C[C@H]2OC(C)=O |  | > 100 | 9.3 | > 100 | > 100 | > 100 |
| CCC(=O)Nc1ccc(-n2cc(CO/N=C3/[C@H]4O[C@]45[C@@]4(C)[C@H](CC[C@@]5(C)[C@@H]3c3ccoc3)[C@@]3(C)C=CC(=O)C(C)(C)[C@@H]3C[C@H]4OC(C)=O)nn2)cc1 |  | > 100 | 6.7 | > 100 | > 100 | > 100 |
| CC1(C)C(=O)C2OC2[C@]2(C)[C@H]3CC[C@@]4(C)[C@H](c5ccoc5)C(=O)[C@H]5O[C@]54[C@]3(C)C(=O)C[C@@H]12 (some centres undefined) |  | > 100 | 131 | > 100 | > 100 | > 100 |
| COc1cccc(C(=O)O/N=C2/[C@H]3O[C@]34[C@@]3(C)[C@H](CC[C@@]4(C)[C@@H]2c2ccoc2)[C@@]2(C)C=CC(=O)C(C)(C)[C@@H]2C[C@H]3OC(C)=O)c1 |  | > 100 | 8 | > 100 | > 100 | > 100 |
| CC(=O)O[C@@H]1C[C@H]2C(C)(C)C(=O)CC[C@]2(C)[C@H]2CC[C@@]3(C)[C@H](c4ccoc4)C(=O)[C@H]4O[C@]43[C@@]21C |  | 20.2 | 7.5 | > 100 | > 100 | > 100 |
| CC(=O)O[C@@H]1C[C@H]2C(C)(C)C(=O)C=C[C@]2(C)[C@H]2CC[C@@]3(C)[C@H](c4ccoc4)C(O)[C@H]4O[C@]43[C@@]21C (some centres undefined) |  | 47.8 | 13.1 | > 100 | > 100 | > 100 |
| CC(=O)O[C@@H]1C[C@H]2C(C)(C)/C(=N/O)C=C[C@]2(C)[C@H]2CC[C@@]3(C)[C@H](c4ccoc4)/C(=N\O)[C@H]4O[C@]43[C@@]21C |  | 29.1 | 31.4 | > 100 | > 100 | > 100 |
| CC(=O)O[C@@H]1C[C@H]2C(C)(C)C(=O)C=C[C@]2(C)[C@H]2CC[C@@]3(C)[C@H](c4ccoc4)/C(=N\OCc4cn(-c5ccc(C)cc5)nn4)[C@H]4O[C@]43[C@@]21C |  | > 100 | 4.2 | > 100 | > 100 | > 100 |
| CC(=O)O[C@@H]1C[C@H]2C(C)(C)C(=O)C=C[C@]2(C)[C@H]2CC[C@@]3(C)[C@H](c4ccoc4)/C(=N\OC(=O)c4cccc([N+](=O)[O-])c4)[C@H]4O[C@]43[C@@]21C |  | > 100 | 28.6 | > 100 | > 100 | > 100 |
